Test results published in patent US20230372296A1, “COMPOSITIONS AND METHODS FOR ANXIETY DISORDER TREATMENT” (PSILOBRAIN THERAPEUTICS INC., priority 2020, published 2023).

Test system: C57BL/6 mice
Test: elevated plus maze model of anxiety disorder
Format: in vivo
Text: The dosage ranges are based upon our preclinical rodent studies testing the anti-anxiety effects of formula (I) and crocin (across varying doses and combinations) on mouse behavior in the elevated plus maze task (see FIG. 1). The elevated plus maze is one of the most widely used tests for measuring anxiety-like behavior and the anti-anxiety effects of pharmacological agents and is based on the natural aversion of mice for open and elevated areas, as well as their natural spontaneous exploratory activity in novel environments. […] Finally, these dosage ranges, as identified from our preclinical studies are commensurate with clinical dosages safely prescribed in humans.
The elevated plus maze model is a behavioral assay for rodents which has been used to assess the […] effect of pharmacological agents. In the model, anxiety behavior of rodents is assessed by determining the ratio of time spent on the arms relative to the time spent in the closed arms of the elevated plus maze structure. The model relies on rodents' affinity to dark, enclosed spaces.
In the elevated plus model, C57BL/6 mice, aged between 6 and 7 weeks were acclimated for at least five days and assigned randomly to treatment groups. Mice were housed on a 12 hour light/dark cycle. No more than 4 mice were kept in each ventilated cage. Mice were provided with standard rodent chow and water ad libitum. Test compounds were administered through the oral route in a volume of 10 milliliters per kilogram (ml/kg) and were formulated in 0.9% saline. 12 groups of mice were tested in the model, each group consisting of 10 mice. After acclimation, test compositions were administered to the animals in the amounts, in milligram per kilogram of mouse weight (mg/kg) according to table 1.
As shown in the table, Group 1 was administered vehicle only. Groups 2 through 7 were administered various combinations of psilocybin and crocin. Groups 8-12 were administered either psilocybin alone or crocin alone. Behavioral testing was performed between 7-9 days after administration of the compounds.
Testing was performed in dim light of 40 lux. The elevated plus maze consists of two open and two closed arms (arm length: 30 cm; width: 5 cm). Open arms have a small 1 cm edge and the closed arms are bordered by a 15 cm wall. At the beginning of the task, mice were placed in the center of the elevated plus maze facing an open arm. Mice were video tracked while exploring the maze for 5 min. The time spent in the open and closed arms was measured and analyzed.
Comparisons were performed using 1 w-ANOVA, Fisher's LSD test. Significance is shown with a single asterisk if P<0.05, with a double asterisk if P<0.01, and with a triple asterisk if P<0.001.

With CC(/C=C/C=C(\C)C(=O)O[C@@H]1O[C@H](CO[C@@H]2O[C@H](CO)[C@@H](O)[C@H](O)[C@H]2O)[C@@H](O)[C@H](O)[C@H]1O)=C\C=C\C=C(C)\C=C\C=C(/C)C(=O)O[C@@H]1O[C@H](CO[C@@H]2O[C@H](CO)[C@@H](O)[C@H](O)[C@H]2O)[C@@H](O)[C@H](O)[C@H]1O [crocin, Crocin] the “time in open arms of elevated plus maze vs vehicle” value (“time in open arms … vs vehicle” for short) (crocin alone 30 mg/kg oral, tested 7-9 days after administration, 5 min) was “did not show a significant beneficial effect on anxiety” and the “time in open arms … vs vehicle” value (crocin alone 50 mg/kg oral, tested 7-9 days after administration, 5 min) was “did not show a significant beneficial effect on anxiety”.
CN(C)CCc1c[nH]c2cccc(OP(=O)(O)O)c12 [psilocybin, Psilocybin] was tested, and the “time in open arms … vs vehicle” value (psilocybin 0.5 mg/kg and higher, administered on its own) was “either no changes in mouse behavior were observed, or increased anxiety-like behavior”, the “time in open arms … vs vehicle” value (psilocybin alone 0.1 mg/kg oral, tested 7-9 days after administration, 5 min) was “no significant difference” and the “time in open arms … vs vehicle” value (psilocybin alone 0.5 mg/kg oral, tested 7-9 days after administration, 5 min) was “significant reduction in open arm time”. The “time in open arms … vs vehicle” value (psilocybin alone 1 mg/kg oral, tested 7-9 days after administration, 5 min) was “significant reduction in open arm time”.
